Reference: ChEMBL document CHEMBL1201862, “PubChem BioAssay data set” (2004)
Where “and” joins values, the source holds several entries; their conditions need not be identical. Identical values can stand only once. Calls of active or inactive are those of the source.

Experiments:
[1] = target: T1, Cytochrome P450 1A2 (Homo sapiens, UniProt P05177);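 also: PubChem cytochrome P450 panel assay, CYP1A2 panel member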
T1 sequence (P05177 whole entry): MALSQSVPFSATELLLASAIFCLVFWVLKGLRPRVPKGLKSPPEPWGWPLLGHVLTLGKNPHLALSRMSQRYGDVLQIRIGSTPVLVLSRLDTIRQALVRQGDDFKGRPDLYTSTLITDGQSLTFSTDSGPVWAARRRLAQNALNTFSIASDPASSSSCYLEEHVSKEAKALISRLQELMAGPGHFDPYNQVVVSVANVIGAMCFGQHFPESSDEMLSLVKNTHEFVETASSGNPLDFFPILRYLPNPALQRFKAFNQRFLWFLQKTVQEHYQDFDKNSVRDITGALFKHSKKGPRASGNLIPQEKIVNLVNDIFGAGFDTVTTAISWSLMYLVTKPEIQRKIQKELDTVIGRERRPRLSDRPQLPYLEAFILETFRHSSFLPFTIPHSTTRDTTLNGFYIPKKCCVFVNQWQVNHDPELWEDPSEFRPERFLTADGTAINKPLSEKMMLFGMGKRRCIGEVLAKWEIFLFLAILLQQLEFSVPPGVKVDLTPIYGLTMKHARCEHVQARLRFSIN

[2] = target: Cytochrome P450 2C19 (Homo sapiens, UniProt P33261); assay: Cytochrome panel assay with activity outcomes. Panel member name: p450-cyp2c19 Compounds with AC50 equal or less than 10 uM are considered active; assay type: functional
[3] = target: Cytochrome P450 3A4 (Homo sapiens, UniProt P08684);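 also: CYP3A4 tested as one member of a cytochrome P450 panel screen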
[4] = target: Cytochrome P450 2D6 (Homo sapiens, UniProt P10635);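 also: CYP2D6 member of a cytochrome P450 panel assay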
[5] = Luminescence Cell-Based Dose Response HTS to Identify Inhibitors of 5'UTR Stem-Loop Driven Prion Protein mRNA Translation in H4 Neuroglioblastoma Cells. [Related pubchem assays: 1827 (Project Summary), 1813 (Primary HTS)]; assay type: functional
[6] = inhibitors of SNCA 5'UTR-driven reporter translation, confirmation, H4 neuroglioma cells, luminescence (AID 1988); assay type: functional, cell-based
[7] = cells; assay type: functional

Chain of Cytochrome P450 2C19 (P33261 whole entry): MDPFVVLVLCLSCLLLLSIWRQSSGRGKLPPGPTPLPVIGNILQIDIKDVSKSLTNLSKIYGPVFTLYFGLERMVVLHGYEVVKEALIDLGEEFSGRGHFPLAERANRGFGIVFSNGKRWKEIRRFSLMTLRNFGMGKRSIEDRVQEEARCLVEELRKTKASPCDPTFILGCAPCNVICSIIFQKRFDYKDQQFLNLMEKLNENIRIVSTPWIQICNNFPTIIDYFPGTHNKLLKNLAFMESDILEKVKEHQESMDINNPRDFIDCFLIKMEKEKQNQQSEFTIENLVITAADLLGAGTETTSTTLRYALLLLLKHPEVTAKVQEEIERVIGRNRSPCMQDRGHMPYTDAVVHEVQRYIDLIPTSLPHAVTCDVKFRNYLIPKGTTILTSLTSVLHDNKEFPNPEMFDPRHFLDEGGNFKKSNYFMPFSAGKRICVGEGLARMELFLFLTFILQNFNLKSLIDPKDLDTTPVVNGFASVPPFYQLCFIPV
Chain of Cytochrome P450 3A4 (P08684 whole entry): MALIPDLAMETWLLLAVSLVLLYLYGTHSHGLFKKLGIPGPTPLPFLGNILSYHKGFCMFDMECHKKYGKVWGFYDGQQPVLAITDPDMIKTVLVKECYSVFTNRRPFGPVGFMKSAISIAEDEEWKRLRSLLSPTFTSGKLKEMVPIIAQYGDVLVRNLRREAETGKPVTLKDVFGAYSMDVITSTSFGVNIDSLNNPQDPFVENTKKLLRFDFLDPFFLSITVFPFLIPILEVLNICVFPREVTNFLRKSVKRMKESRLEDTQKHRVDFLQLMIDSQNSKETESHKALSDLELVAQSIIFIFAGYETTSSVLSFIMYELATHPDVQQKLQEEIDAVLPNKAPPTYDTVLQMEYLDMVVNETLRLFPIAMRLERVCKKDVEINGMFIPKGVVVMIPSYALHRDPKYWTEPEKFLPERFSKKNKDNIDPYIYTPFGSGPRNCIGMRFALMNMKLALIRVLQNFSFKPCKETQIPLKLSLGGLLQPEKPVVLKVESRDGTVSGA
Chain of Cytochrome P450 2D6 (P10635 whole entry): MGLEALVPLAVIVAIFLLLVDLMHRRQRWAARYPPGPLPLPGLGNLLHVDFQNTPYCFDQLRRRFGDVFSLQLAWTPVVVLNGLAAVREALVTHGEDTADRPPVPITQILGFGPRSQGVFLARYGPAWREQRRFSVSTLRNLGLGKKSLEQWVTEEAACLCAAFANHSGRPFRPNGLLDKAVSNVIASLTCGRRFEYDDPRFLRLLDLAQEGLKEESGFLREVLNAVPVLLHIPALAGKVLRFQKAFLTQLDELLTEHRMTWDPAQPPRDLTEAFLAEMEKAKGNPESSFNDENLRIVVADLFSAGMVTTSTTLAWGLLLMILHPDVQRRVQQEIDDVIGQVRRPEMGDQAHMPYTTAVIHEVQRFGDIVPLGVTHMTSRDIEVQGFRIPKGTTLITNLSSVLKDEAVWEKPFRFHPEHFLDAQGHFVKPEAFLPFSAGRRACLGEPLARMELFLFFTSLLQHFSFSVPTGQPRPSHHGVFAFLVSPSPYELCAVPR

In the case of `CC(C)(C(=O)c1cccnc1)c1cccnc1` [METYRAPONE], the AC50 [1] is reported as 12.6 µM (inconclusive).
In the case of `CC1CCCC(NC(=O)c2nnc(O)c3ccccc23)C1C` (configuration not stated), the AC50 ([2]; read-out: AC50) is reported as 20 µM (inconclusive).
For `CN1CCN(c2ncc3ncc(=O)n(Cc4ccc(F)cc4)c3n2)CC1`, the AC50 [1] was 25.1 µM (inconclusive) and the AC50 [3] was 15.8 µM (inconclusive).
In the case of `Cn1c(=O)c(-c2ccccc2)nc2cnc(Nc3ccccc3)nc21`, the AC50 ([2]; read-out: AC50) is reported as 0.0398 µM (inconclusive).
In the case of `CCNCCCNCCCNCCCNCC` [BIS(ETHYL)NORSPERMINE], the AC50 [2] is reported as “inconclusive”.
For `O=C(Cc1ccc(Br)cc1)Nc1ccccc1Sc1ccccc1`, the AC50 [4] was 11.2 µM (inconclusive).
In the case of `COc1ccc(/N=C/c2ccc(CNS(=O)(=O)c3ccc(Cl)cc3)o2)cc1`, the AC50 ([2]; read-out: AC50) is reported as 11.2 µM (inconclusive), the AC50 [1] is reported as 25.1 µM (inconclusive) and the AC50 [3] is reported as 31.6 µM (inconclusive).
In the case of `COc1cc2nc3c(c([Si](C)(C)C(C)(C)C)c2cc1OC)Cn1c-3cccc1=O`, the AC50 ([2]; read-out: AC50) is reported as 39.8 µM (inconclusive).
With `N#Cc1cc(-c2ccccc2)cnc1Sc1ccc(Cl)cc1` the AC50 [4] was 10 µM (inconclusive) and the AC50 [3] was 12.6 µM (inconclusive).
For `CCc1cc2c(=O)c(-c3cnn(-c4ccccc4)c3)coc2c(CN2CCOCC2)c1O`, the AC50 [1] was 15.8 µM (inconclusive).
For `CC(=O)c1ccc(N=Nc2ccc(N(C)C)cc2)cc1`, the EC50 [5] was 4.44 µM (active) and the EC50 [6] was 4.11 µM (inconclusive).
In the case of `CN(C)c1ncc2ncc(=O)n(C)c2n1`, the AC50 [4] is reported as 20 µM (inconclusive).
For `C[C@H](CC(C#N)(c1ccccc1)c1ccccc1)N1CCCCC1`, the AC50 ([2]; read-out: AC50) was 1.58 µM (inconclusive) and the AC50 [3] was 3.98 µM (inconclusive).
In the case of `Cn1cccc1CNCCc1ccccc1`, the AC50 ([2]; read-out: AC50) is reported as 14.1 µM (inconclusive) and the AC50 [3] is reported as 31.6 µM (inconclusive).
For `CN(C)c1ncnc2ccc(-c3ccoc3)cc12`, the AC50 ([2]; read-out: AC50) was 39.8 µM (inconclusive) and the AC50 [3] was 12.6 µM (inconclusive).
For `CCN(CC)CCOC(=O)c1ccc(N)cc1` [PROCAINE], the AC50 [4] was 10 µM (inconclusive) and 39.8 µM (inconclusive).
In the case of `COc1ccc2oc(=O)c(/C(C)=N/NC(=O)c3ccncc3)cc2c1`, the IC50 [7] is reported as 1.31 µM (active).
With `COc1ccc(-n2c(=O)c(-c3cccc(Cl)c3)nc3cncnc32)cc1` the AC50 ([2]; read-out: AC50) was 39.8 µM (inconclusive).
With `CCCOc1ccc(N2CC(C(=O)Nc3ccccc3F)CC2=O)cc1` (configuration not stated) the IC50 [7] was 32.1 µM (active).
For `COc1ccccc1CCn1c(=O)c(CCc2ccccc2)nc2cncnc21`, the AC50 [4] was 25.1 µM (inconclusive).
With `CC(C)OC(=O)COc1ccc(-c2ccccc2)cc1` the IC50 [7] was 6.13 µM (active).
With `COc1cc(-c2nnc(SCC(=O)Nc3ccc4c(c3)OCCO4)o2)cc(OC)c1OC` the AC50 [1] was 15.8 µM (inconclusive).
In the case of `CNC(=O)C(=O)NCCc1ccc(Cl)cc1`, the AC50 [4] is reported as 28.2 µM (inconclusive).
With `CCCOc1ccccc1C1CC(=O)NC(C)=C1C(=O)OCC(C)C` (configuration not stated) the AC50 [1] was 11.2 µM (inconclusive).
In the case of `COc1ccc(S(=O)(=O)N2CC3C4C=CC(C4)C3C2)cc1` (configuration not stated), the AC50 [4] is reported as 15.8 µM (inconclusive).
With `COc1cccc(NC(=S)N(CCc2nc3cc(C)c(C)cc3[nH]2)Cc2cccnc2)c1` the AC50 [4] was 0.126 µM (inconclusive).
With `CC(C)(C)NC(=O)c1ccc(NC(=O)c2ccccc2-c2ccccc2C(=O)O)cc1` the IC50 [7] was 6.42 µM (active).
With `O=c1c(-c2ccc(Cl)cc2)nc2cnc(N3CCOCC3)nc2n1C1CC1` the AC50 [1] was 1.26 µM (inconclusive).
In the case of `Cc1cc(C)nc(SCC(=O)Nc2ccccc2[N+](=O)[O-])n1`, the AC50 [1] is reported as 17.8 µM (inconclusive).
For `Nc1nc(Br)c2c(F)cccc2c1-c1ccc(F)cc1`, the AC50 ([2]; read-out: AC50) was 1.12 µM (inconclusive).
With `CN(C)C(=O)c1ccc(-c2nccc(-n3ccnc3)n2)cc1` the AC50 ([2]; read-out: AC50) was 39.8 µM (inconclusive), the AC50 [4] was 39.8 µM (inconclusive) and the AC50 [3] was 3.16 µM (inconclusive).
For `Cc1c(/C=N/CCOCc2ccccc2)cnn1C`, the AC50 ([2]; read-out: AC50) was 22.4 µM (inconclusive) and the AC50 [4] was 25.1 µM (inconclusive).
With `N[C@@](C(=O)O)(c1ccc(P(=O)(O)O)cc1)C1CC1` the AC50 ([2]; read-out: AC50) was 25.1 µM (inconclusive) and the AC50 [1] was 50.1 µM (inconclusive).
For `Cc1ccccc1-c1nc(NC2CC2)c2ccccc2n1`, the AC50 [4] was 39.8 µM (inconclusive).
For `CNc1ncncc1-c1ccc(C(=O)N(C)C)cc1`, the AC50 [1] was 15.8 µM (inconclusive).
